Data reported in patent publication US11505556B2, “Halogenated derivatives of morphinans and uses thereof” (Xalud Therapeutics, Inc., priority 2017, dated 2022).

How the values were obtained:
[1] = system: BV-2 cells; test: Cell viability of BV-2 cells; type: cell-based, mouse; settings: BV2 cells, FIGS. 7, 8B to 8D
Procedure: Cell viability was also measured by a standard assay, e.g., measurement of the release of cytoplasm-resident enzymes in the tissue culture supernatant or media to detect cell loss/lysis/rupture.

[2] = system: EAE (multiple sclerosis model) pain; test: Experimental Autoimmune Encephalomyelitis (EAE) model, mechanical allodynia; type: in vivo, rat; settings: both paws
From the text: The Experimental Autoimmune Encephalomyelitis (EAE) Model has been developed as a rat model of multiple sclerosis (Sloane, E. et al. Brain Behav. Immun. 2009, 23, 92-100). The model encompasses the injection of myelin oligodendrocyte glycoprotein (MOG) or similar glycoprotein to establish and antibody reaction that damages spinal nerve fibers leading to a progression of motor and sensory deficits. The rapid progression of deficits can be slowed by reduction of the MOG dose, enabling testing for pain responses prior to the development of hind limb paresis.
Reduced-dose MOG or saline (sham) was administered intradermally at the base of the tail. Mechanical allodynia pain testing was performed on hind left and right paws by application of Semmes-Weinstein (“von Frey”) monofilaments calibrated for different bending forces for 8 seconds to determine the paw-withdrawal threshold. On day 15 post EAE induction, after reduction in the paw-withdrawal threshold (establishment of mechanical allodynia pain), subcutaneous injection of 15 mg/kg XT-203 or saline was administered three times/day for 15 days. Behavioral data were analyzed with two-way ANOVA. For all tests, statistical significance was set to p<0.05 (*).

[3] = in vitro; settings: rat, cultured hepatocytes

## COc1ccc2c3c1O[C@@H]1C(F)CCC4[C@H](C2)N(CC2CC2)CC[C@]341 (stereo partly shown) [XT-203]
[1]
  cell viability: good viability
[2]; 15 mg/kg SC three times/day for 15 days from day 15 post EAE induction
  pain responses in MOG-treated rats: did reverse pain responses
[2]; 15 mg/kg SC three times/day for 15 days
  pain response in sham non-MOG rats: no effect
[3]
  half-life: 13.2 min
